Results taken from patent publication US4791215A, “Derivatives of glutamic acid and aspartic acid” (priority 1984, dated 1988).
Like-named read-outs stand apart in the source and are kept apart here.

Assays:
[1] = system: CCK-8 induced contraction of rabbit colon; experiment: Anti-spastic activity in the colon stimulated by CCK-8; assay type: in vivo
Experimental: A much more specific anti-spastic activity, that is adhering much more to a physiological situation, is illustrated by the following experiment.
The abdomen of an anaesthetised rabbit was cut open to show the transverse colon. A small balloon full of water was inserted at the point established and connected to a pressure transducer by means of a polythene cannula filled with water.
The optimum sensitivity was fixed in relation to the physiological conditions and the products were administered through the femoral vein. Contractions were induced by the administration of 100 ng/kg of CCK.

[2] = system: normal pancreatic cells; experiment: Trophic action of CCK-8 on normal pancreas; assay type: in vivo, hamsters
From the text: (§1) The anti-cholecystokinin effect of the most powerful of the compounds which are the subject of the present invention, that is the compound C-7, on the trophic activity of CCK on normal pancreatic cells and on those of a pancreatic adenocarcinoma is to be studied.
(§2) Male hamsters were inoculated in the cheek pouches with a suspension of 1×10^5 tumoral cells of a pancreatic adenocarcinoma. Five days after the inoculation the animals were divided at random into 4 groups of 10 animals each, that is, a control group, a group of animals treated with 10 μg/kg of CCK-8 three times a day, a group of animals treated with 5 mg/kg i.p. of compound C-7 three times a day, and a fourth group treated simultaneously with the compound C-7 and CCK-8 in the manner described above.
(§3) After 15 days of this treatment, the animals were killed, and the normal pancreas and the inoculated pancreatic tumours in the cheek pouches were collected and weighed. The DNA was extracted and measured according to conventional techniques.
(§4) The results thus obtained are given in Table 13, expressed as mean values (±S.E.)

[3] = system: pancreatic adenocarcinoma; assay type: in vivo, hamsters
From the text: as §1, §2, §3, §4

[4] = 10 mcg/kg CCK-8 + compound 5 mg/kg, 3 times a day
[5] = compound 5 mg/kg i.p. 3 times per day

With `CCCCCN(CCCCC)C(=O)C(CCC(=O)O)NC(=O)c1ccc(Cl)c(Cl)c1` (centres unmarked) [Compound C-7] the “effect on CCK-8 stimulated colon” value ([1]; 3 mg/kg iv, single experiments) was -100.0, the ED50 ([1]; Oryctolagus cuniculus, iv, CCK 100 ng/kg) was 1.11 mg/kg and the Pancreas weight [2, 4] was 374 ± 25.4 mg. The “Pancreatic DNA” value [2, 4] was 1.0 ± 0.08 mg, the Pancreas weight [2, 5] was 336 ± 22.6 mg and the “Pancreatic DNA” value [2, 5] was 0.93 ± 0.09 mg. For the same molecule, the “TUMORAL DNA” value [3, 4] was 0.4 ± 0.02 mg, the “Weight of Pancreatic Carcinoma” value [3, 4] was 109.5 ± 6.2 mg and the “TUMORAL DNA” value [3, 5] was 0.42 ± 0.02 mg. For the same molecule, the “Weight of Pancreatic Carcinoma” value [3, 5] was 104 ± 7.5 mg and the “effect on growth of pancreatic adenocarcinoma / CCK-8 actions” value ([3]; hamster, in vivo) was “antagonises both these actions of CCK-8 in a higly significant manner”.
